Consider 10 compounds from patent publication US6281352.

Where two headings read alike, the source gives them in different places.

`CNC(=O)[C@@H]1CCCCN(S(=O)(=O)c2c(C)cc(C)cc2C)CCC[C@H](C(=O)OC(C)(C)C)[C@@H](CC(C)C)C(=O)N1`: the ring closure, yield of all isomers (from CNC(=O)[C@H](CCCCNS(=O)(=O)c1c(C)cc(C)cc1C)NC(=O)[C@H](CC(C)C)[C@H](CCCO)C(=O)OC(C)(C)C, amine bond, PPh3/DIAD, THF, 21.5 mM, 16.0 h, 2 steps) came out at 30%. Consider `COC(=O)[C@@H]1Cc2ccc(cc2)OCCC[C@H](C(=O)OC(C)(C)C)[C@@H](CC(C)C)C(=O)N1`, for which the ring closure, yield of all isomers (from COC(=O)[C@H](Cc1ccc(O)cc1)NC(=O)[C@H](CC(C)C)[C@H](CCCBr)C(=O)OC(C)(C)C, ether bond, Cs2CO3, DMF, 32.8 mM, 80.0 °C, 0.75 h) is 74%. Compound `CNC(=O)[C@@H]1CCC(=O)OCCC[C@H](C(=O)OC(C)(C)C)[C@@H](CC(C)C)C(=O)N1` returned a ring closure, yield of all isomers (from CNC(=O)[C@H](CCC(=O)O)NC(=O)[C@H](CC(C)C)[C@H](CCCO)C(=O)OC(C)(C)C, ester bond, PPh3/DIAD, THF, 9.4 mM, 16.0 h, 2 steps) of 24%.

Under “from CNC(=O)[C@@H](N)CCCCNC(=O)CC[C@@H](N[C@@H](CCc1ccccc1)C(=O)O)C(=O)OC(C)(C)C, amide bond, BOP, DMF, 24.0 h”, `CNC(=O)[C@@H]1CCCCNC(=O)CC[C@H](C(=O)OC(C)(C)C)N[C@@H](CCc2ccccc2)C(=O)N1` gave a ring closure, yield of all isomers of 16%.

In turn, `CNC(=O)[C@@H]1CCCCN(S(=O)(=O)c2ccc([N+](=O)[O-])cc2)CCC[C@H](C(=O)OC(C)(C)C)[C@@H](CC(C)C)C(=O)N1` gave a ring closure, yield of all isomers (from CNC(=O)[C@H](CCCCNS(=O)(=O)c1ccc([N+](=O)[O-])cc1)NC(=O)[C@H](CC(C)C)[C@H](CCCO)C(=O)OC(C)(C)C, amine bond, PPh3/DIAD, THF, 24.7 mM) of 26%. As to `CNC(=O)[C@@H]1CCCCN(S(=O)(=O)C(F)(F)F)CCC[C@H](C(=O)OC(C)(C)C)[C@@H](CC(C)C)C(=O)N1`, under “from CNC(=O)[C@H](CCCCNS(=O)(=O)C(F)(F)F)NC(=O)[C@H](CC(C)C)[C@H](CCCO)C(=O)OC(C)(C)C, amine bond, DIAD/PPh3, THF, 15.6 mM, 16.0 h, 2 steps”, the ring closure, yield of all isomers turned out to be 52%. The compound `COC(=O)[C@@H]1CCCc2ccc(cc2)OCCC[C@H](C(=O)OC(C)(C)C)[C@@H](CC(C)C)C(=O)N1` showed a ring closure, yield of all isomers (from COC(=O)[C@H](CCCc1ccc(O)cc1)NC(=O)[C@H](CC(C)C)[C@H](CCCBr)C(=O)OC(C)(C)C, ether bond, Cs2CO3, DMF, 8.7 mM, 0.0 °C, 2.0 h) of 32%. As for `CNC(=O)[C@@H]1CCCCN(S(=O)(=O)c2cn(C)cn2)CCC[C@H](C(=O)OC(C)(C)C)[C@@H](CC(C)C)C(=O)N1`, the ring closure, yield of all isomers (from CNC(=O)[C@H](CCCCNS(=O)(=O)c1cn(C)cn1)NC(=O)[C@H](CC(C)C)[C@H](CCCO)C(=O)OC(C)(C)C, amine bond, PPh3/DIAD, THF, 17.1 mM, 16.0 h) was determined as 52%. In the case of `C=C1CO[C@H](COCc2ccccc2)[C@@H](C/C=C/c2ccccc2)C(=O)N[C@H](C(=O)NC)CCCN(C(C)=O)C1`, the ring closure, yield of all isomers (from C=C(CBr)CO[C@H](COCc1ccccc1)[C@@H](C/C=C/c1ccccc1)C(=O)N[C@@H](CCCN)C(=O)NC, amine bond, diisopropylethylamine, acetonitrile, 2.1 mM, 3 steps) stood at 76%. In turn, `CNC(=O)[C@@H]1CCCCNC(=O)C[C@H](C(=O)OC(C)(C)C)N[C@@H](CCc2ccccc2)C(=O)N1` registered a ring closure, yield of all isomers (from CNC(=O)[C@@H](N)CCCCNC(=O)C[C@@H](N[C@@H](CCc1ccccc1)C(=O)O)C(=O)OC(C)(C)C, amide bond, BOP, DMF, 24.0 h, 2 steps) of 30%.
